From patent US20250213512A1, “TRANSDERMAL ANALGESIC FORMULATION” (MEAT & LIVESTOCK AUSTRALIA LTD, priority 2017, published 2025)
“And” between values parts separate entries of the source, which are not always exact repeats. Equal entries are not always repeated.

Tests used:
[1] = Solubility / precipitation of NSAIDs in the vehicles tested; settings: vehicles screened
[2] = Screening of NSAID and vehicle combinations: penetration through cattle skin in vitro (Table 13)
Experimental: Hair was removed using an electric clipper and the subcutaneous fat and musculature carefully trimmed away before the skin was cut into circular sections (approximately 2 cm diameter) using a metal wad punch, and placed in airtight ziplock bags, stored at −20° C. within 5 hr of slaughter.
The skin samples were defrosted immediately prior to use and mounted on Franz diffusion cells. […] A glass cover slip was applied to each donor chamber to prevent evaporation of the donor solution. Samples (200 μL) were collected at regular intervals from the receptor chambers via the sampling port and immediately replenished with equal volumes of fresh receptor solution. At the completion of each study, the diffusions cells were dismantled and the skin discs were rinsed and stored.

[3] = 10% Flunixin, vehicle KET65 (Cromollient-SCE-LQ-(MH), 100% Di-PPG2-Myreth-10-Adipate), sample time 6 hrs
[4] = 10% Flunixin, vehicle KET93: Isopronanol 50% IPN, 1-Ethyl-2-Pryrrolidone 45% EP, Menthol 50 ng/mL, Buffer/EVAP None, sample time 0.5 hrs
[5] = 10% Flunixin, vehicle KET93: Isopronanol 50% IPN, 1-Ethyl-2-Pryrrolidone 45% EP, Menthol 50 ng/mL, Buffer/EVAP None, sample time 2 hrs
[6] = 10% Flunixin, vehicle KET93: Isopronanol 50% IPN, 1-Ethyl-2-Pryrrolidone 45% EP, Menthol 50 ng/mL, Buffer/EVAP None, sample time 4 hrs
[7] = 10% Flunixin, vehicle KET93: Isopronanol 50% IPN, 1-Ethyl-2-Pryrrolidone 45% EP, Menthol 50 ng/mL, Buffer/EVAP None, sample time 6 hrs
[8] = 10% Flunixin, vehicle KET95: Isopronanol 50% IPN, 1-Ethyl-2-Pryrrolidone 45% EP, Menthol 50 ng/mL, Buffer/EVAP None, sample time 0.2 hrs
[9] = 10% Flunixin, vehicle KET95: Isopronanol 50% IPN, 1-Ethyl-2-Pryrrolidone 45% EP, Menthol 50 ng/mL, Buffer/EVAP None, sample time 0.5 hrs
[10] = 10% Flunixin, vehicle KET95: Isopronanol 50% IPN, 1-Ethyl-2-Pryrrolidone 45% EP, Menthol 50 ng/mL, Buffer/EVAP None, sample time 2 hrs
[11] = 10% Flunixin, vehicle KET95: Isopronanol 50% IPN, 1-Ethyl-2-Pryrrolidone 45% EP, Menthol 50 ng/mL, Buffer/EVAP None, sample time 4 hrs
[12] = 10% Flunixin, vehicle KET96: Isopronanol 50% IPN, Propylene glycol 45% PPG, Eucalyptus oil […] 1,8-cineole, Buffer/EVAP None, sample time not printed (sample KET1430, replicate 1)
[13] = Flunixin 10% in vehicle KET46: Ethanol 70% EthOH, Propylene glycol 30% PPG, terpene None, 0.1M citrate, sample time 6 hrs
[14] = Flunixin 10% in vehicle KET46: Ethanol 70% EthOH, Propylene glycol 30% PPG, terpene None, 0.1M citrate, sample time 8 hrs

With `Cc1c(Nc2ncccc2C(=O)O)cccc1C(F)(F)F` [flunixin, flunixin meglumine] the solubility in vehicles [1] was “most soluble in the majority of vehicles examined”, the Concentration ([2]; 10% Flunixin, vehicle KET65 (Cromollient-SCE-LQ-(MH), 100% Di-PPG2-Myreth-10-Adipate), sample time 0.5 hrs) was 0 ng/mL and the Concentration ([2]; 10% Flunixin, vehicle KET65 (Cromollient-SCE-LQ-(MH), 100% Di-PPG2-Myreth-10-Adipate), sample time 2 hrs) was 0 ng/mL. The analysis conc ([2]; 10% Flunixin, vehicle KET65 (Cromollient-SCE-LQ-(MH), 100% Di-PPG2-Myreth-10-Adipate), sample time 4 hrs) was 0.006 and 0.005, the Concentration [2, 3] was 18 ng/mL and 21 ng/mL and 15 ng/mL and the analysis conc [2, 3] was 0.006 and 0.007 and 0.005. For the same compound, the Concentration [2, 4] was 96 ng/mL, the analysis conc [2, 4] was 0.032 and the Concentration [2, 5] was 102 ng/mL. The analysis conc [2, 5] was 0.034, the Concentration [2, 6] was 543 ng/mL and the analysis conc [2, 6] was 0.181. The Concentration [2, 7] was 579 ng/mL, the analysis conc [2, 7] was 0.193 and the Concentration ([2]; 10% Flunixin, vehicle KET94: Isopronanol 50% IPN, Propylene glycol 45% PPG, Eucalyptus oil […] 1,8-cineole, Buffer/EVAP None, sample time 2 hrs) was 135 ng/mL. The Concentration ([2]; 10% Flunixin, vehicle KET94: Isopronanol 50% IPN, Propylene glycol 45% PPG, Eucalyptus oil […] 1,8-cineole, Buffer/EVAP None, sample time 2 hrs, listed as Flunixin) was 123 ng/mL, the Concentration [2, 8] was 114 ng/mL and the analysis conc [2, 8] was 0.038. The Concentration [2, 9] was 159 ng/mL and 237 ng/mL, the analysis conc [2, 9] was 0.053 and 0.079 and the Concentration [2, 10] was 165 ng/mL and 246 ng/mL and 132 ng/mL. For the same compound, the analysis conc [2, 10] was 0.055 and 0.082 and 0.044, the Concentration [2, 11] was 186 ng/mL and 285 ng/mL and 147 ng/mL and the analysis conc [2, 11] was 0.062 and 0.095 and 0.049. The Concentration [2, 12] was 60 ng/mL, the analysis conc [2, 12] was 0.02 and the “Concentration” value ([2]; Flunixin 10% in vehicle KET46: Ethanol 70% EthOH, Propylene glycol 30% PPG, terpene None, 0.1M citrate, sample time 2 hrs) was 0 ng/mL. For the same compound, the “Concentration” value ([2]; Flunixin 10% in vehicle KET46: Ethanol 70% EthOH, Propylene glycol 30% PPG, terpene None, 0.1M citrate, sample time 4 hrs) was 0 ng/mL, the “Concentration” value [2, 13] was 36 ng/mL and the analysis conc [2, 13] was 0.012. The “Concentration” value [2, 14] was 36 ng/mL, the analysis conc [2, 14] was 0.012 and the analysis conc ([2]; Flunixin 10% in vehicle KET47: Ethanol 70% EthOH, Propylene glycol 30% PPG, Menthol 50 mg/mL, 0.1M citrate, sample time 0.5 hrs) was 0.009. For the same compound, the Concentration ([2]; Flunixin 50%, vehicle KET38: Ethanol 50% EthOH, no co-solvent, Menthol 50 mg/mL, sample time 0.5 hrs, replicates 1-3) was 0 ng/mL, the Concentration ([2]; Flunixin 50%, vehicle KET38: Ethanol 50% EthOH, no co-solvent, Menthol 50 mg/mL, sample time 2 hrs, replicates 1-3) was 0 ng/mL and the Concentration ([2]; Flunixin 50%, vehicle KET38: Ethanol 50% EthOH, no co-solvent, Menthol 50 mg/mL, sample time 4 hrs, replicates 1-3) was 0 ng/mL. It also gave a Concentration ([2]; Flunixin 50%, vehicle KET38: Ethanol 50% EthOH, no co-solvent, Menthol 50 mg/mL, sample time 6 hrs, replicates 1-3) of 0 ng/mL and a Concentration ([2]; Flunixin 50%, vehicle KET38: Ethanol 50% EthOH, no co-solvent, Menthol 50 mg/mL, sample time 8 hrs, replicates 1-3) of 0 ng/mL.
